Legend:
Pf rhomboid-1 = Pf rhomboid-1 cleavage of GFP-tagged Spitz co-expressed in COS cells (western blot); assay type: cell-based, Plasmodium falciparum; conditions: serum-free medium supplemented with inhibitor, substrate Spitz
Method: (§1) Plasmodium rhomboid activity was determined using published methods described in Urban et al Cell (2001) 107(2): 173-82 and WO02/093177. Briefly, Pf rhomboids-1 and -3 were co-expressed with GFP-tagged Spitz under control of a CMV promoter; as follows; COS cells were grown in DMEM medium (supplemented with 10% foetal calf serum), and transfected with FuGENE 6 Transfection Reagent (Roche). Cells were co-transfected in 35 mm culture wells with 25-250 ng of (a) rhomboid construct comprising the Pf-rhomboid-1 or -3 coding sequence inserted into the vector pcDNA 3.1+ (Invitrogen), and (b) substrate construct comprising the GFP-Spitz coding sequence inserted into pcDNA 3.1+ (Invitrogen). Empty plasmid was used to bring the total DNA to 1 μg per well. Construct (b) was transfected into COS cells in the absence of construct (a) as a control for endogenous cleavage of the substrate. 24-30 hours post-transfection, the medium was replaced with serum-free medium; this was harvested 24 hours later and cells were lysed in SDS-sample buffer. For some experiments, the serum-free medium was supplemented with the metalloprotease inhibitor batimastat (British Biotech) or ilomostat (Calbiochem) to minimize endogenous substrate cleavage in the assay. For inhibitor assays, a test compound may be included in the serum-free medium. […]

Pf rhomboid-3 = Pf rhomboid-3 cleavage of GFP-tagged Spitz co-expressed in COS cells (western blot); assay type: cell-based, Plasmodium falciparum; conditions: serum-free medium supplemented with inhibitor, substrate Spitz
Method: as §1

Structure (SMILES): CNC(=O)[C@H](Cc1ccccc1)NC(=O)[C@H](CC(C)C)[C@H](CSc1cccs1)C(=O)NO [batimastat]
- inhibition of Pf rhomboid-1 cleavage of Spitz (Pf rhomboid-1): not inhibited
- inhibition of Pf rhomboid-3 cleavage of Spitz (Pf rhomboid-3): not inhibited
